Source: patent US11078204B2, “Heterocyclic derivatives as PI3K inhibitors” (Incyte Corporation, priority 2018, dated 2021)
pIC50: −log10 of the molar value. Counter-ions that a name gives are not always drawn.

Assays:
[1] = tested on: Phosphorylated Ribosomal Protein S6 (RPS6) in THP-1 cells; experiment: THP-1 RPS6 ELISA Assay; assay type: cell-based; conditions: Homo sapiens, 2 hours compound, 10 nM MCP-1 for 15 minutes, Phospho-RPS6 ELISA, read-out: PI3Kγ_THP1_RPS6_ELISA IC50
Method: Example A. THP-1 RPS6 ELISA Assay To measure the Phosphorylated Ribosomal Protein S6 (RPS6) in cell lysates, THP-1 cells (Human Acute Monocytic Leukemia) are purchased from ATCC (Manassas, Va.) and maintained in RPMI with 10% FBS (Gibco/Life Technologies, Carlsbad, Calif.). For the assay, THP-1 cells are serum starved overnight in RPMI, then plated in RPMI (2×10^5 cells/well in 90 μL) into 96-well flat-bottom tissue culture treated plates (Corning, Corning, N.Y.), in the presence or absence of a concentration range of test compounds. Covered plates are incubated for 2 hours at 37° C., 5% CO2 then treated with or without 10 nM MCP-1 (MYBioSource, San Diego, Calif.) for 15 minutes at 37° C., 5% CO2. Plates are centrifuged at 1600 RPM and supernatants are removed. Cells are lysed in Lysis Buffer (Cell Signaling, Danvers, Mass.) with Protease Inhibitor (Calbiochem/EMD, Germany), PMSF (Sigma, St Louis Mo.), HALTS (Thermo Fisher, Rockford, Ill.) for 30 min on wet ice. Cell lysates are frozen at −80° C. before testing. The lysates are tested in the Human/Mouse/Rat Phospho-RPS6 ELISA (R&D Systems, Inc. Minn, Minn.). The plate is measured using a microplate reader (SpectraMax M5-Molecular Devices, LLC Sunnyvale, Calif.) set to 450 nm with a wavelength correction of 540. IC50 determination is performed by fitting the curve of inhibitor percent inhibition versus the log of the inhibitor concentration using the GraphPad Prism 5.0 software.

[2] = target: PI3Kγ (p110γ) Recombinant Human Protein (Homo sapiens (Human), UniProt P48736); experiment: PI3K-γ Scintillation Proximity Assay; assay type: biochemical; conditions: 20 μM PIP2, 2 μM ATP, 13 nM PI3Kγ, 120 min
PI3Kγ (p110γ) Recombinant Human Protein, sequence (P48736 whole entry): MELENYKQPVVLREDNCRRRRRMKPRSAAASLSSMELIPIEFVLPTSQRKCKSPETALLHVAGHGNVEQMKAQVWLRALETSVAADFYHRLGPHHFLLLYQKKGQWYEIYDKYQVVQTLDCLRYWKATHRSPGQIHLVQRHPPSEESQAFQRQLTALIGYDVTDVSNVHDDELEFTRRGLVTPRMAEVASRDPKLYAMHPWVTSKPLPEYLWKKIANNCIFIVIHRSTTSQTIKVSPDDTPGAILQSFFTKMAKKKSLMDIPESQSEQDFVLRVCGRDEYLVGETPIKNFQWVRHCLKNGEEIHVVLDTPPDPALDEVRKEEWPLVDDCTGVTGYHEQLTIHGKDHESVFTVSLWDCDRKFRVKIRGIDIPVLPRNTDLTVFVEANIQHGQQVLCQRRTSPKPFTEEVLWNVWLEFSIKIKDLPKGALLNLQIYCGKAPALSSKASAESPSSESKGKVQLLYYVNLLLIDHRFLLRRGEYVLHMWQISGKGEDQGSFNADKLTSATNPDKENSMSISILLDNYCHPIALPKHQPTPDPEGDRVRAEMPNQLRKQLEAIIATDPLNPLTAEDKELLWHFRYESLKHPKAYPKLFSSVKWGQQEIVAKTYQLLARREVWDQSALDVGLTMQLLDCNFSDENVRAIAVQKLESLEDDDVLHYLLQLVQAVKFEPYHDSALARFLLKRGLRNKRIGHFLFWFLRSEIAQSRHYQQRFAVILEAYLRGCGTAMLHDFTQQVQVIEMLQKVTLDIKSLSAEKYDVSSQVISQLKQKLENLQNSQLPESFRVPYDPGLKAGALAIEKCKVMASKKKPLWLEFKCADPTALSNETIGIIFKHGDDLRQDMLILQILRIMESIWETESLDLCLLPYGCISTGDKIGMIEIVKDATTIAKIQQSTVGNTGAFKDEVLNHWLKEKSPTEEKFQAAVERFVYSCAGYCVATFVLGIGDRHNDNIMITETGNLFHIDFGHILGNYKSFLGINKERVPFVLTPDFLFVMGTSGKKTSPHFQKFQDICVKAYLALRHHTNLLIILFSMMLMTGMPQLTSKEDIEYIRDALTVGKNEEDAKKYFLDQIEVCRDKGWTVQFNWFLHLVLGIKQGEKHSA
Description: Example B. PI3K-γ Scintillation Proximity Assay
(§1) [γ-^33P]ATP (10 mCi/mL) and Wheat Germ Agglutinin (WGA) YSi SPA Scintillation Beads was purchased from Perkin Elmer (Waltham, Mass.). Lipid kinase substrate, D-myo-Phosphatidylinositol 4,5-bisphosphate (PtdInS(4,5)P2)D (+)-sn-1,2-di-O-octanoylglyceryl, 3-O-phospho linked (PIP2), CAS 204858-53-7, was purchased from Echelon Biosciences (Salt Lake City, Utah). PI3Kγ (p110γ) Recombinant Human Protein was purchased from Life technology (Grand Island, N.Y.). ATP, MgCl2, DTT, EDTA, MOPS and CHAPS were purchased from Sigma Aldrich (St. Louis, Mo.).
(§2) The kinase reaction was conducted in polystyrene 384-well Greiner Bio-one white plate from Thermo Fisher Scientific in a final volume of 25 μL. Inhibitors were first diluted serially in DMSO and added to the plate wells before the addition of other reaction components. The final concentration of DMSO in the assay was 2%. The PI3Kγ assay was carried out at room temperature in 20 mM MOPS, pH 6.7, 10 mM MgCl2, 5 mM DTT and CHAPS 0.03%. Reactions were initiated by the addition of ATP, the final reaction mixture consisted of 20 μM PIP2, 2 μM ATP, 0.5 μCi [γ-^33p]ATP, 13 nM PI3Kγ. Reactions were incubated for 120 min and terminated by the addition of 40 μL SPA beads suspended in quench buffer: 163 mM potassium phosphate pH 7.8, 20% glycerol, 25 mM EDTA. The final concentration of SPA beads is 1.0 mg/mL. After the plate sealing, plates were shaken overnight at room temperature and centrifuged at 1500 rpm for 10 min, the radioactivity of the product was determined by scintillation counting on Topcount (PerkinElmer). IC50 determination was performed by fitting the curve of percent of the solvent control activity versus the log of the inhibitor concentration using the GraphPad Prism 6.0 software.

[3] = target: PI3Kδ (p110δ/p85α) Recombinant Human Protein (Homo sapiens (Human), UniProt O00329); experiment: PI3Kδ Scintillation Proximity Assay; assay type: biochemical; conditions: 20 μM PIP2, 2 μM ATP, 3.4 nM PI3Kδ, 120 min
PI3Kδ (p110δ/p85α) Recombinant Human Protein, sequence (O00329 whole entry): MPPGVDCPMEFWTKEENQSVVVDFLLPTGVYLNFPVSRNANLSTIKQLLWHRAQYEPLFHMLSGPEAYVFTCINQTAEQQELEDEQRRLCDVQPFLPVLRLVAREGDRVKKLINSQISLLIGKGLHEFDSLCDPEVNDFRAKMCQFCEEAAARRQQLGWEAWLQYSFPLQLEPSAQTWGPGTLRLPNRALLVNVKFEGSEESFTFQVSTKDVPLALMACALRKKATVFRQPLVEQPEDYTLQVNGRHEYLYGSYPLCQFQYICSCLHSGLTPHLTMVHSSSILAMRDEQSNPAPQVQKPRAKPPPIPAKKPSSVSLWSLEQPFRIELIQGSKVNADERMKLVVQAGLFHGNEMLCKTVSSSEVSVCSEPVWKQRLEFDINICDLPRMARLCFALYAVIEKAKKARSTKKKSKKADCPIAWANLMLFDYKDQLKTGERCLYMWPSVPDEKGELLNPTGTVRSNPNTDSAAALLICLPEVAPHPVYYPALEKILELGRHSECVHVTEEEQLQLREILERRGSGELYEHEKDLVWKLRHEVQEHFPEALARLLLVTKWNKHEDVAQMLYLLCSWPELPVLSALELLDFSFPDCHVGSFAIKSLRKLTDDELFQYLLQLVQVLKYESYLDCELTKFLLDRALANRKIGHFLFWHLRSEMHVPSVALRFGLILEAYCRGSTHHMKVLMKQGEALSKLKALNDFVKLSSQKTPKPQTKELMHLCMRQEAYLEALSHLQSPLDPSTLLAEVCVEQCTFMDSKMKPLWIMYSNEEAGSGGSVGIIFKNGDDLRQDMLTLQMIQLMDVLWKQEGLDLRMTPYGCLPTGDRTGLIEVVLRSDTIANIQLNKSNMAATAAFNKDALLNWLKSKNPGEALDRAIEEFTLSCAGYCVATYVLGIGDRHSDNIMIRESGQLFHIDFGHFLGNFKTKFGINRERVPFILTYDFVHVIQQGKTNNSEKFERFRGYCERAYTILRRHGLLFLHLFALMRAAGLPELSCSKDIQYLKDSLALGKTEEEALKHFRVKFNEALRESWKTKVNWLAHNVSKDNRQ
PI3Kδ (p110δ/p85α) Recombinant Human Protein, sequence (P27986 whole entry partner): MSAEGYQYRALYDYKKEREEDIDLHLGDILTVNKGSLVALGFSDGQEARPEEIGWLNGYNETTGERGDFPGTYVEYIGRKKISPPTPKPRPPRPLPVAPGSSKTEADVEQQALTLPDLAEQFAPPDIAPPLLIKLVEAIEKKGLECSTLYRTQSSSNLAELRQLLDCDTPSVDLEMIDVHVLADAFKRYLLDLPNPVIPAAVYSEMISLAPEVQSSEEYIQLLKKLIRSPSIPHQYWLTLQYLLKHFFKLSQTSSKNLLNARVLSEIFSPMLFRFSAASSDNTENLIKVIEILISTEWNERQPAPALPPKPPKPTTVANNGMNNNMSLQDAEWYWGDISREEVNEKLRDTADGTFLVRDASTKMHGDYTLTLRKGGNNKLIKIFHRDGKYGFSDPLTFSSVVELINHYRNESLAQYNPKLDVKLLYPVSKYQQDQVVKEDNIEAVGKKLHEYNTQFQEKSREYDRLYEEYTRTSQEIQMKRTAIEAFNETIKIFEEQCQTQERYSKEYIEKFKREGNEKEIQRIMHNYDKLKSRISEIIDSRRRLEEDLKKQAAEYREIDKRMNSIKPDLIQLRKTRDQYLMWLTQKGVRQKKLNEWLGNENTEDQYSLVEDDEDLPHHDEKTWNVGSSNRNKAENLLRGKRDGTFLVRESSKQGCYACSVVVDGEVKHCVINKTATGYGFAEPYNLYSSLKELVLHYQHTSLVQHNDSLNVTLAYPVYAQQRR
Description: Example C. PI3Kδ Scintillation Proximity Assay
as §1, with “PI3Kδ (p110δ/p85α)” for “PI3Kγ (p110γ)”, “Eurofins (St Charles, Mo.).” for “Life technology (Grand Island, N.Y.).”
as §2, with “PI3Kδ” for “PI3Kγ”, “[γ-^33P]ATP, 3.4” for “[γ-^33p]ATP, 13”, “PI3Kδ.” for “PI3Kγ.”

pIC50 [1]	pIC50 [2]	pIC50 [3]	Structure (SMILES)
≤ 6.00	≥ 7.00	≤ 5.70	C[C@@H](C1CC1)N1Cc2cc(-c3cnc4c(N)nc(C(=O)NC5CC(O)C5)cn34)ccc2C1=O (stereo partly drawn) [Example 31, (S)-8-Amino-3-(2-(1-cyclopropylethyl)-1-oxoisoindolin-5-yl)-N-(3-hydroxycyclobutyl)imidazo[1,2-a]pyrazine-6-carboxamide, trifluoroacetate salt]
≤ 6.00	≥ 7.00	> 5.70	C[C@@H](C1CC1)N1Cc2cc(-c3cnc4c(N)nc(C(F)(F)F)cn34)cc(Cl)c2C1=O [Example 1, (S)-5-(8-Amino-6-(trifluoromethyl)imidazo[1,2-a]pyrazin-3-yl)-7-chloro-2-(1-cyclopropylethyl)isoindolin-1-one]
≥ 6.30	≥ 7.00	≥ 7.00	Cc1ncc(-c2cn3c(-c4cc5c(c(S(C)(=O)=O)c4)C(=O)N([C@@H](C)C4CC4)C5)cnc3c(N)n2)o1 (single isomer, unassigned) [Example 33, trifluoroacetate salt]
≥ 6.30	≥ 7.00	≥ 6.30	CC(C)NC(=O)c1cn2c(-c3cc4c(c(S(C)(=O)=O)c3)C(=O)N([C@@H](C)C3CC3)C4)cnc2c(N)n1 (single isomer, unassigned) [Example 28, trifluoroacetate salt]
≤ 6.00	≥ 7.00	≥ 6.30	CC(c1ccccc1)N1Cc2cc(-c3cnc4c(N)ncnn34)ccc2C1=O (racemic) [Example 12, 5-(4-Aminoimidazo[2,1-f][1,2,4]triazin-7-yl)-2-(1-phenylethyl)isoindolin-1-one, trifluoroacetate salt]
≤ 6.00	≥ 7.00	≤ 5.70	C[C@@H](C1CC1)N1Cc2cc(-c3cnc4c(N)nc(C(F)(F)F)cn34)ccc2C1=O [Example 5, (S)-5-(8-Amino-6-(trifluoromethyl)imidazo[1,2-a]pyrazin-3-yl)-2-(1-cyclopropylethyl)isoindolin-1-one]
≤ 6.00	≥ 7.00	≤ 5.70	Cc1cc(-c2cnc3c(N)ncnn23)cc2cn(C(C)C3CC3)nc12 (racemic) [Example 18, 7-(2-(1-Cyclopropylethyl)-7-methyl-2H-indazol-5-yl)imidazo[2,1-f][1,2,4]triazin-4-amine trifluoroacetate salt]
> 6.00	≥ 7.00	≥ 6.30	C[C@@H](C1CC1)N1Cc2cc(-c3cnc4c(N)nc(C(=O)NC56CC(C5)C6)cn34)cc(S(C)(=O)=O)c2C1=O (single isomer, unassigned) [Example 29b, trifluoroacetate salt]
≤ 6.00	≥ 7.00	≤ 5.70	CC(C)N1Cc2cc(-c3cnc4c(N)nc(C(F)(F)F)cn34)ccc2C1=O [Example 13, 5-(8-Amino-6-(trifluoromethyl)imidazo[l,2-a]pyrazin-3-yl)-2-isopropylisoindolin-1-one trifluoroacetate salt]
≥ 7.00	≥ 7.00	≥ 7.00	Cc1ncc(-c2cn3c(-c4cc5c(c(S(C)(=O)=O)c4)C(=O)N([C@@H](C)C4CC4)C5)cnc3c(N)n2)s1 [Example 34, (S)-5-(8-Amino-6-(2-methylthiazol-5-yl)imidazo[1,2-a]pyrazin-3-yl)-2-(1-cyclopropylethyl)-7-(methylsulfonyl)isoindolin-1-one, trifluoroacetate salt]
> 6.00	≥ 7.00	≥ 6.30	C[C@@H](C1CC1)N1Cc2cc(-c3cnc4c(N)nc(C(=O)N5CC(F)(F)C5)cn34)cc(S(C)(=O)=O)c2C1=O [Example 29d, (S)-5-(8-Amino-6-(3,3-difluoroazetidine-1-carbonyl)imidazo[1,2-a]pyrazin-3-yl)-2-(1-cyclopropylethyl)-7-(methylsulfonyl)isoindolin-1-one, trifluoroacetate salt]
≤ 6.00	≥ 7.00	≤ 5.70	CC(C)N1Cc2cc(-c3cnc4c(N)ncnn34)ccc2C1=O [Example 14, 5-(4-Aminoimidazo[2,1-f][1,2,4]triazin-7-yl)-2-isopropylisoindolin-1-one trifluoroacetate salt]
> 6.00	≥ 7.00	≥ 6.30	C[C@@H](C1CC1)N1Cc2cc(-c3cnc4c(N)ncnn34)cc(S(C)(=O)=O)c2C1=O [Example 8, (S)-5-(4-Aminoimidazo[2,1-f][1,2,4]triazin-7-yl)-2-(1-cyclopropylethyl)-7-(methylsulfonyl)isoindolin-1-one]
> 6.00	≥ 7.00	≥ 6.30	C[C@@H](C1CC1)N1Cc2cc(-c3cnc4c(N)nc(C(=O)N5CC(C)(C)C5)cn34)cc(S(C)(=O)=O)c2C1=O [Example 29c, (S)-5-(8-Amino-6-(3,3-dimethylazetidine-1-carbonyl)imidazo[1,2-a]pyrazin-3-yl)-2-(1-cyclopropylethyl)-7-(methylsulfonyl)isoindolin-1-one, trifluoroacetate salt]
≤ 6.00	≥ 7.00	≤ 5.70	CC(C1CC1)n1cc2cc(-c3cnc4c(N)ncnn34)cnc2n1 (stereo not drawn) [Example 25, 7-(2-(1-Cyclopropylethyl)-2H-pyrazolo[3,4-b]pyridin-5-yl)imidazo[2,1-f][1,2,4]triazin-4-amine trifluoroacetate salt]
≤ 6.00	≥ 7.00	≥ 6.30	C[C@@H](C1CC1)N1Cc2cc(-c3cnc4c(N)nc(-c5cn[nH]c5)cn34)cc(S(C)(=O)=O)c2C1=O [Example 38, (S)-5-(8-Amino-6-(1H-pyrazol-4-yl)imidazo[1,2-a]pyrazin-3-yl)-2-(1-cyclopropylethyl)-7-(methylsulfonyl)isoindolin-1-one, trifluoroacetate salt]
≤ 6.00	≥ 7.00	≤ 5.70	C[C@@H](C1CC1)N1Cc2cc(-c3cnc4c(N)ncnn34)ccc2C1=O [Example 6, (S)-5-(4-Aminoimidazo[2,1-f][1,2,4]triazin-7-yl)-2-(1-cyclopropylethyl)isoindolin-1-one]
